Read-outs that look alike come from different tables or passages of the source.
Assays:
Format in all cases: cell-based
Settings in all cases: Homo sapiens, 5 hours treatment
[1] = test system: Aβ-40; assay: Aβ-40 MSD 3-plex ELISA, conditioned media of 2B7 cells
Description: (§1) Assays were conducted to determine the ability of a Compound of Formula I to modulate […], and Aβ-38.
(§2) Plates with capture antibodies were blocked for 1-2 hours at room temperature with 150 μL of the manufactures blocking reagent.
(§3) Cultured 2B7 cells in 96 well plate with 250 μL of media per well until confluent;
(§4) Prepared serial dilutions of compounds in DMSO at 100× the final desired concentration;
(§5) Washed wells with 2B7 cells 1× with 250 μL of media;
(§6) Diluted DMSO stocks 1:100 into media: • Added 250 μL of media containing compounds (1% DMSO) to wells with 2B7 cells for 5 hours at 37° C.
(§7) ELISA Sample Prep: • Diluted conditioned media: 1 part media with 1% DMSO and 1 part blocking buffer; • 150 μL of the 250 μL of conditioned media were used.
(§8) Prepared per manufacturer's protocol (see above). • Seven point standard curve samples were prepared that contained Aβ-42, Aβ-40, and Aβ-38. The highest concentration of Aβ-42 and Aβ-38 was 3,000 pg/mL and the highest concentration of Aβ-40 was 10,000 pg/mL. Subsequent serial dilutions were 1:3 and the final composition of each sample was 1 part blocking buffer and 1 part cell medium containing 1% DMSO.
(§9) Overnight Sample Incubation: • Blocked plates are washed 5× with MSD wash buffer with a plate washer; • […] and blocker G reagent in MSD blocking solution was added; • 25 μL of samples (1 part conditioned media containing 1% DMSO and 1 part MSD blocking buffer) were then added; • Plates were incubated overnight at 4 degrees C. or 2 hours at room temperature.
(§10) Final Wash and Readout: • Washed wells 5× with MSD wash buffer; • Added 150 μL 2×MSD read buffer; • Read with MSD imager.
(§11) Aβ peptide levels for each peptide were calculated from the standard curve using the MSD software provided with the MSD 2400 Imager. Percent vehicle values for each compound dosage were then calculated and fit to a 4 parameter curve generating IC50 values.
(§12) Conditioned media from 2B7 cells (Mayo) was collected after 5 hours of treatment and diluted with 1 volume of Meso Scale Discovery (MSD, Gaithersburg Md.) blocking buffer (1% BSA in MSD wash buffer). For total Aβ measurements, standard-bind, multi-array single spot 96 well MSD ELISA plates were coated with unlabeled 4G8 capture antibody (Covance, Princeton, N.J.) overnight at 4° C. and then blocked with 5% BSA in MSD wash buffer for 1 hour at room temperature with orbital shaking Diluted 2B7 conditioned media were added to the blocked in-house total Aβ MSD plates with SULFO-TAG 6E10 antibody (MSD). For Aβ38, 40 and 42 measurements, diluted 2B7 conditioned media were added to blocked human (6E10) Aβ 3-Plex plates (MSD). Total Aβ and Aβ 3-Plex plates were incubated for 2 hours at room temperature with orbital shaking followed by washing and reading according to the manufacturer's instructions (SECTOR® Imager 2400, MSD). Aβ concentrations were converted to percent vehicle values and used to construct dose response curves which were fitted to […] using GraphPad Prism version 5.00 for Windows, GraphPad Software, San Diego Calif. USA.

[2] = test system: Aβ-38; assay: Aβ-38 MSD 3-plex ELISA, conditioned media of 2B7 cells
Description: as §1, §2, §3, §4, §5, §6, §7, §8, §9, §10, §11, §12

[3] = test system: Aβ-42; assay: Aβ-42 MSD 3-plex ELISA, conditioned media of 2B7 cells
Description: as §1, §2, §3, §4, §5, §6, §7, §8, §9, §10, §11, §12

[4] = inflection of dose response curve, read-out: Aβ 40 DR IC50 Inflection
[5] = inflection of dose response curve, read-out: Aβ 38 DR IC50 Inflection
[6] = inflection of dose response curve, read-out: Aβ 42 DR IC50 Inflection

| SMILES | IC50 [1, 4] | IC50 ([1]; read-out: Aβ 40 IC50) | IC50 [2, 5] | IC50 ([2]; read-out: Aβ 38 IC50) | IC50 [3, 6] | IC50 ([3]; read-out: Aβ 42 IC50) |
| --- | --- | --- | --- | --- | --- | --- |
| CCO[C@@H]([C@H]1C[C@@H](C)[C@H]2[C@H](O1)[C@H](O)[C@@]1(C)[C@@H]3CC[C@H]4C(C)(C)[C@@H](O[C@H]5CN([C@H]6CCN(CC)C6=O)CCO5)CC[C@@]45C[C@@]35CC[C@]21C)C(C)(C)O [Compound I-1] | > 5000 nM | > 5000 nM | 501 to 1000 nM | 501 to 1000 nM | 501 to 1000 nM | 501 to 1000 nM |
| CCO[C@@H]([C@H]1C[C@@H](C)[C@H]2[C@H](O1)[C@H](O)[C@@]1(C)[C@@H]3CC[C@H]4C(C)(C)[C@@H](O[C@H]5CN(C6CN(CCF)C6)CCO5)CC[C@@]45C[C@@]35CC[C@]21C)C(C)(C)O [Compound I-4] | > 5000 nM | 1000 to 5000 nM |  | 501 to 1000 nM | 100 to 500 nM | 100 to 500 nM |
| CCO[C@@H]([C@H]1C[C@@H](C)[C@H]2[C@H](O1)[C@H](O)[C@@]1(C)[C@@H]3CC[C@H]4C(C)(C)[C@@H](O[C@H]5CN(C6CN(CC(F)F)C6)CCO5)CC[C@@]45C[C@@]35CC[C@]21C)C(C)(C)O [Compound I-9] |  | 1000 to 5000 nM |  | 501 to 1000 nM | 100 to 500 nM | 100 to 500 nM |
| CCO[C@@H]([C@H]1C[C@@H](C)[C@H]2[C@H](O1)[C@H](O)[C@@]1(C)[C@@H]3CC[C@H]4C(C)(C)[C@@H](O[C@H]5CN(C(C)(C)C6CN(C)C6)CCO5)CC[C@@]45C[C@@]35CC[C@]21C)C(C)(C)O [Compound I-12] |  | 1000 to 5000 nM |  | 100 to 500 nM | 100 to 500 nM | 100 to 500 nM |
| CCO[C@@H]([C@H]1C[C@@H](C)[C@H]2[C@H](O1)[C@H](O)[C@@]1(C)[C@@H]3CC[C@H]4C(C)(C)[C@@H](O[C@H]5CN(C6CN(C(C)(C)C)C6)CCO5)CC[C@@]45C[C@@]35CC[C@]21C)C(C)(C)O [Compound I-14] |  | 1000 to 5000 nM |  | 100 to 500 nM | < 100 nM | < 100 nM |
| CCO[C@@H]([C@H]1C[C@@H](C)[C@H]2[C@H](O1)[C@H](O)[C@@]1(C)[C@@H]3CC[C@H]4C(C)(C)[C@@H](O[C@H]5CN(C(C)(C)C6CN(C7COC7)C6)CCO5)CC[C@@]45C[C@@]35CC[C@]21C)C(C)(C)O [Compound I-15] | > 5000 nM | 1000 to 5000 nM |  | 501 to 1000 nM | 100 to 500 nM | 100 to 500 nM |
| CCO[C@@H]([C@H]1C[C@@H](C)[C@H]2[C@H](O1)[C@H](O)[C@@]1(C)[C@@H]3CC[C@H]4C(C)(C)[C@@H](O[C@H]5CN(C6CN(CC(C)(C)C)C6)CCO5)CC[C@@]45C[C@@]35CC[C@]21C)C(C)(C)O [Compound I-16] |  | 1000 to 5000 nM |  | 501 to 1000 nM | 100 to 500 nM | 100 to 500 nM |
| CCO[C@@H]([C@H]1C[C@@H](C)[C@H]2[C@H](O1)[C@H](O)[C@@]1(C)[C@@H]3CC[C@H]4C(C)(C)[C@@H](O[C@H]5CN(CC6CN(CC(C)(C)C)C6)CCO5)CC[C@@]45C[C@@]35CC[C@]21C)C(C)(C)O [Compound I-18] | 1000 to 5000 nM | 1000 to 5000 nM |  | 501 to 1000 nM | 100 to 500 nM | 100 to 500 nM |
| CCO[C@@H]([C@H]1C[C@@H](C)[C@H]2[C@H](O1)[C@H](O)[C@@]1(C)[C@@H]3CC[C@H]4C(C)(C)[C@@H](O[C@H]5CN(C6CCN(C7CCC7)CC6)CCO5)CC[C@@]45C[C@@]35CC[C@]21C)C(C)(C)O [Compound I-21] | 1000 to 5000 nM | 1000 to 5000 nM | 501 to 1000 nM | 501 to 1000 nM | 100 to 500 nM | 100 to 500 nM |
| CCO[C@@H]([C@H]1C[C@@H](C)[C@H]2[C@H](O1)[C@H](O)[C@@]1(C)[C@@H]3CC[C@H]4C(C)(C)[C@@H](O[C@H]5CN(CC6CN(C7CCC7)C6)CCO5)CC[C@@]45C[C@@]35CC[C@]21C)C(C)(C)O [Compound I-23] | > 5000 nM | 1000 to 5000 nM |  | 100 to 500 nM | 100 to 500 nM | 100 to 500 nM |
| CCO[C@@H]([C@H]1C[C@@H](C)[C@H]2[C@H](O1)[C@H](O)[C@@]1(C)[C@@H]3CC[C@H]4C(C)(C)[C@@H](O[C@H]5CN(CC6CN(CC7(C)COC7)C6)CCO5)CC[C@@]45C[C@@]35CC[C@]21C)C(C)(C)O [Compound I-26] | 1000 to 5000 nM | 1000 to 5000 nM | 1000 to 5000 nM | 501 to 1000 nM | 100 to 500 nM | 100 to 500 nM |
| CCO[C@@H]([C@H]1C[C@@H](C)[C@H]2[C@H](O1)[C@H](O)[C@@]1(C)[C@@H]3CC[C@H]4C(C)(C)[C@@H](O[C@H]5CN(C6(C)CN(C7CCC7)C6)CCO5)CC[C@@]45C[C@@]35CC[C@]21C)C(C)(C)O [Compound I-27] |  | 1000 to 5000 nM |  | 100 to 500 nM | < 100 nM | 100 to 500 nM |
| CCO[C@@H]([C@H]1C[C@@H](C)[C@H]2[C@H](O1)[C@H](O)[C@@]1(C)[C@@H]3CC[C@H]4C(C)(C)[C@@H](O[C@H]5CN(C6CCN(C)CC6)CCO5)CC[C@@]45C[C@@]35CC[C@]21C)C(C)(C)O [Compound I-29] |  | 1000 to 5000 nM |  | 100 to 500 nM | < 100 nM | < 100 nM |
| CCO[C@@H]([C@H]1C[C@@H](C)[C@H]2[C@H](O1)[C@H](O)[C@@]1(C)[C@@H]3CC[C@H]4C(C)(C)[C@@H](O[C@H]5CN(C6(C)CN(C)C6)CCO5)CC[C@@]45C[C@@]35CC[C@]21C)C(C)(C)O [Compound I-31] |  | 1000 to 5000 nM |  | 100 to 500 nM | < 100 nM | < 100 nM |
| CCO[C@@H]([C@H]1C[C@@H](C)[C@H]2[C@H](O1)[C@H](O)[C@@]1(C)[C@@H]3CC[C@H]4C(C)(C)[C@@H](O[C@H]5CN(C6(C)CN(CC(C)(C)C)C6)CCO5)CC[C@@]45C[C@@]35CC[C@]21C)C(C)(C)O [Compound I-33] |  |  |  | 100 to 500 nM | < 100 nM | 100 to 500 nM |
| CCO[C@@H]([C@H]1C[C@@H](C)[C@H]2[C@H](O1)[C@H](O)[C@@]1(C)[C@@H]3CC[C@H]4C(C)(C)[C@@H](O[C@H]5CN(C6(C)CN(C7COC7)C6)CCO5)CC[C@@]45C[C@@]35CC[C@]21C)C(C)(C)O [Compound I-36] |  |  |  | 501 to 1000 nM | 100 to 500 nM | 100 to 500 nM |
| CCO[C@@H]([C@H]1C[C@@H](C)[C@H]2[C@H](O1)[C@H](O)[C@@]1(C)[C@@H]3CC[C@H]4C(C)(C)[C@@H](O[C@H]5CN(CCN6CC(F)(F)C6)CCO5)CC[C@@]45C[C@@]35CC[C@]21C)C(C)(C)O [Compound I-64] |  |  |  | 501 to 1000 nM | 100 to 500 nM | 100 to 500 nM |

— US20130060020A1, “Compounds useful for treating neurodegenerative disorders” (Satori Pharmaceuticals, Inc., priority 2011, published 2013)
